# From patent US9364458B2, “Stabilized pharmaceutical dosage forms comprising atrasentan” (AbbVie Inc., priority 2013, dated 2016)
# Counter-ions that a name gives are not always drawn.
# Experiments:
# [1] = Dispersive surface energy by inverse gas chromatography; type: physicochemical
# Method: Wet granulation blends prepared as described in Method 2 (atrasentan added dry to granulation bowl) and Method 3 (atrasentan added as HPMC suspension to granulation bowl) of Example 6 were analyzed prior to compression using inverse gas chromatography (“IGC”) to determine the surface energy of the blends. These measurements were compared to the measured values for pure atrasentan and pure HPMC.
# [2] = test system: subjects with diabetic nephropathy; experiment: Phase IIb clinical trials of atrasentan; type: in vivo, human
# Source text: The low dosing and the narrow therapeutic window for atrasentan have been confirmed through analysis of the data collected from recent Phase IIb clinical trials in subjects with diabetic nephropathy. These Phase IIb clinical trials evaluated the safety and efficacy of atrasentan to identify an appropriate balance between the systemic effects of atrasentan (which can lead to adverse side effects such as edema) and the efficacy effects of atrasentan. […] Reduction of residual albuminuria and the urinary-albumin-to-creatine ratio are surrogate endpoints generally associated with delaying the progression of end-stage renal disease and associated cardiovascular complications.
# [3] = Impurities / degradation products by HPLC in stability testing; type: physicochemical; details: mixtures with atrasentan and crospovidone, 80° C.
# [4] = about 0.25 mg to about 1.25 mg daily
# [5] = daily dose greater than about 1.25 mg
compound,measurement,setting,value
CCCCN(CCCC)C(=O)CN1C[C@H](c2ccc3c(c2)OCO3)[C@@H](C(=O)O)[C@@H]1c1ccc(OC)cc1 [Atrasentan Monohydrochloride],DISPERSIVE SURFACE ENERGY,[1]; Average,50.9 mJ · m^−2
same,DISPERSIVE SURFACE ENERGY,[1]; Run 1,50.6 mJ · m^−2
same,DISPERSIVE SURFACE ENERGY,[1]; Run 2,51.4 mJ · m^−2
"CCCCN(CCCC)C(=O)CN1C[C@H](c2ccc3c(c2)OCO3)[C@@H](C(=O)O)[C@@H]1c1ccc(OC)cc1 [atrasentan, (2R,3R,4S)-4-(1,3-benzodioxol-5-yl)-1-[2-(dibutylamino)-2-oxoethyl]-2-(4-methoxyphenyl)pyrrolidine-3-carboxylic acid]",residual albuminuria,[2]; [4],significantly reduce
same,urinary-albumin-to-creatine ratio,[2]; [4],significantly reduce
same,"adverse effects, particularly peripheral edema",[2]; [5],increase in adverse effects
same,efficacy relative to the 1.25 mg daily dose,[2]; [5],without any further improvement in efficacy
same,efficacy of daily dose,[2]; daily dose less than about 0.25 mg,sub-therapeutic
Cl.N[C@@H](CS)C(=O)O.O [L-cysteine hydrochloride monohydrate],stabilizing effect among the three anti-oxidants,[3],greatest stabilizing effect
